Measurements from patent US10807992B2, “Single enantiomer antiparasitic compounds” (priority 2017, dated 2020).
Read-outs that look alike come from different tables or passages of the source.

Tests used:
Aedes aegypti = experiment: In vitro ingestion activity against adult mosquitoes (artificial feeding, bovine blood); conditions: read-out: Mortality % R1 + R2
Method: Aedes aegypti (Louisiana Biologicals Inc., New Orleans, La.) eggs were allowed to hatch, close, and age between 3-5 days in an environmental chamber at 26° C., 80% humidity with light/dark cycles.
For mosquito ingestion tests, serial dilutions of the compound stock were performed using DMSO to achieve the desired range for EC50 and EC90 determination. An aliquot of each compound dilution was added to organic bovine blood with a final DMSO concentration of 0.5% and placed in a temperature-controlled artificial feeding container.
(§1) Compounds tested were: the C1 racemate, C1 (R) enantiomer, and the C1 (S) enantiomer. For Trial 3, the C1 (R) enantiomer and the C1 (S) enantiomer were further chiral purified to achieve >99% purity.
For both contact and ingestion assays, five female Aedes aegypti adults were added to each vial or cage. The test vials for contact assays were held in an environmental chamber at 24° C., 80% humidity with light/dark cycles (12 hours each). The cages for mosquito ingestion assays were held in a temperature-controlled artificial feeding apparatus to allow continual access to organic bovine blood containing the desired concentration of compound. Fresh aliquots of compound-spiked bovine blood were provided daily for the duration of the study.
Assessment of mortality/knockdown was performed at various time points between 30 minutes and 24 hours post infestation. Mosquitoes showing no movement or mosquitoes that were knocked down were noted as dead. Results from trial 1 and trial 2 contact assays are shown in Tables 12 and 13, respectively and the results from trial 3 mosquito ingestion assay is shown in table 14.
For the mosquito contact and ingestion assays, each replicate contained 5 mosquitoes. For ease of calculation, the two replicates were added to equal a total of 10 mosquitoes.

Ixodes scapularis = experiment: In vitro contact activity against adult ticks (coated vial), I. scapularis; conditions: for mortality at 0.006 µM: Trial 1, dose 0.006 μM; for mortality at 0.024 µM: Trial 1, dose 0.024 μM; for mortality at 0.098 µM: Trial 1, dose 0.098 μM; for mortality at 0.39 µM: Trial 1, dose 0.39 μM; for mortality at 1.56 µM: Trial 1, dose 1.56 μM; for mortality at 6.25 µM: Trial 1, dose 6.25 μM; for mortality at 25 µM: Trial 1, dose 25 μM; for mortality at 100 µM: Trial 1, dose 100 μM
Method: Rhipicephalus sanguineus, Dermacentor variabilis, Amblyomma americanum, (Ecto Services, Inc., Henderson, N.C.) and Ixodes scapularis (Oklahoma State University, Stillwater, Okla.) aged between 2-4 weeks post molt were held in an environmental chamber at 24° C., 80% humidity with 12-hour light/dark cycles.
For tick assays, vial caps were pre-drilled with a single hole in the center of each cap to allow air exchange. A filter paper (Whatman Grade 540 2.1 cm) was placed in the lid of each vial. An aliquot from each compound stock was added to an acetone/triton solution to achieve the desired top doses for the study. Serial dilutions were conducted from the top dose (i.e. 100 ppm) to achieve the desired titration range for EC50 and EC90 determination. For R. sanguineus, D. variabilis, and A. americanum, the final DMSO concentration in each test vial was 0.5%. For I. scapularis, compounds were solubilized directly in an acetone/triton solution due to I. scapularis' sensitivity to DMSO. A 459 μL aliquot of each compound formulation was transferred to a vial containing a Whatman Grade 540 2.1 cm filter paper. Vials were immediately placed on an unheated roller unit to allow for an even coating of the vial walls. After vials were coated, 41 μL of each compound formulation was added to the filter paper embedded in each vial cap. Each cap was allowed to dry. The vials were loosely capped and allowed to dry for a minimum of four hours in a chemical fume hood.
as §1
Ten adult ticks were added to each vial and held at 24° C., 80% humidity with 12-hour light/dark cycles. Adult ticks were assessed for percent mortality at various time points between 2 hours and 48 hours post infestation. Ticks were stimulated on a heated roller unit and evaluated. Ticks showing no movement, or very slow and uncoordinated movement were noted as dead.

O=C(CC(F)(F)F)N1CC2(C1)OCc1cc(C3=NS[C@](c4cc(Cl)c(F)c(Cl)c4)(C(F)(F)F)C3)ccc12 [C1 (R) enantiomer, (R)-1-[6-[5-(3,5-dichloro-4-fluoro-phenyl)-5-(trifluoromethyl)-4H-isothiazol-3-yl]spiro[1H-isobenzofuran-3,3′-azetidine]-1′-yl]-3,3,3-trifluoro-propan-1-one]
mortality at 0.049 ppm (Aedes aegypti; 24 h): 40% | mortality at 0.2 ppm (Aedes aegypti; 24 h): 30% | mortality at 0.78 ppm (Aedes aegypti; 24 h): 75% | mortality at 3.125 ppm (Aedes aegypti; 24 h): 100% | mortality at 12.5 ppm (Aedes aegypti; 24 h): 100% | mortality at 50 ppm (Aedes aegypti; 24 h): 100% | mortality at 0.049 ppm (Aedes aegypti): 10% | mortality at 0.2 ppm (Aedes aegypti): 10% | mortality at 0.78 ppm (Aedes aegypti): 0% | mortality at 3.125 ppm (Aedes aegypti): 11.1% | mortality at 12.5 ppm (Aedes aegypti): 100% | mortality at 50 ppm (Aedes aegypti): 88.9% | mortality at 0.006 µM (Ixodes scapularis; 2 h, Rep1): 0% | mortality at 0.006 µM (Ixodes scapularis; 2 h, Rep2): 0% | mortality at 0.024 µM (Ixodes scapularis; 2 h, Rep1): 0% | mortality at 0.024 µM (Ixodes scapularis; 2 h, Rep2): 0% | mortality at 0.098 µM (Ixodes scapularis; 2 h, Rep1): 0% | mortality at 0.098 µM (Ixodes scapularis; 2 h, Rep2): 0% | mortality at 0.39 µM (Ixodes scapularis; 2 h, Rep1): 0% | mortality at 0.39 µM (Ixodes scapularis; 2 h, Rep2): 0% | mortality at 1.56 µM (Ixodes scapularis; 2 h, Rep1): 0% | mortality at 1.56 µM (Ixodes scapularis; 2 h, Rep2): 0% | mortality at 6.25 µM (Ixodes scapularis; 2 h, Rep1): 0% | mortality at 6.25 µM (Ixodes scapularis; 2 h, Rep2): 0% | mortality at 25 µM (Ixodes scapularis; 2 h, Rep1): 0% | mortality at 25 µM (Ixodes scapularis; 2 h, Rep2): 0% | mortality at 100 µM (Ixodes scapularis; 2 h, Rep1): 0% | mortality at 100 µM (Ixodes scapularis; 2 h, Rep2): 0% | mortality at 0.006 µM (Ixodes scapularis; 6 h, Rep1): 0% | mortality at 0.006 µM (Ixodes scapularis; 6 h, Rep2): 0% | mortality at 0.024 µM (Ixodes scapularis; 6 h, Rep1): 0% | mortality at 0.024 µM (Ixodes scapularis; 6 h, Rep2): 0% | mortality at 0.098 µM (Ixodes scapularis; 6 h, Rep1): 0% | mortality at 0.098 µM (Ixodes scapularis; 6 h, Rep2): 0% | mortality at 0.39 µM (Ixodes scapularis; 6 h, Rep1): 0% | mortality at 0.39 µM (Ixodes scapularis; 6 h, Rep2): 0% | mortality at 1.56 µM (Ixodes scapularis; 6 h, Rep1): 0% | mortality at 1.56 µM (Ixodes scapularis; 6 h, Rep2): 0% | mortality at 6.25 µM (Ixodes scapularis; 6 h, Rep1): 0% | mortality at 6.25 µM (Ixodes scapularis; 6 h, Rep2): 0% | mortality at 25 µM (Ixodes scapularis; 6 h, Rep1): 0% | mortality at 25 µM (Ixodes scapularis; 6 h, Rep2): 0% | mortality at 100 µM (Ixodes scapularis; 6 h, Rep1): 0% | mortality at 100 µM (Ixodes scapularis; 6 h, Rep2): 0% | mortality at 0.006 µM (Ixodes scapularis; 12 h, Rep1): 0% | mortality at 0.006 µM (Ixodes scapularis; 12 h, Rep2): 0% | mortality at 0.024 µM (Ixodes scapularis; 12 h, Rep1): 0% | mortality at 0.024 µM (Ixodes scapularis; 12 h, Rep2): 0% | mortality at 0.098 µM (Ixodes scapularis; 12 h, Rep1): 0% | mortality at 0.098 µM (Ixodes scapularis; 12 h, Rep2): 0% | mortality at 0.39 µM (Ixodes scapularis; 12 h, Rep1): 0% | mortality at 0.39 µM (Ixodes scapularis; 12 h, Rep2): 0% | mortality at 1.56 µM (Ixodes scapularis; 12 h, Rep1): 0% | mortality at 1.56 µM (Ixodes scapularis; 12 h, Rep2): 0% | mortality at 6.25 µM (Ixodes scapularis; 12 h, Rep1): 0% | mortality at 6.25 µM (Ixodes scapularis; 12 h, Rep2): 0% | mortality at 25 µM (Ixodes scapularis; 12 h, Rep1): 0% | mortality at 25 µM (Ixodes scapularis; 12 h, Rep2): 0% | mortality at 100 µM (Ixodes scapularis; 12 h, Rep1): 0% | mortality at 100 µM (Ixodes scapularis; 12 h, Rep2): 0% | mortality at 0.006 µM (Ixodes scapularis; 24 h, Rep1): 0% | mortality at 0.006 µM (Ixodes scapularis; 24 h, Rep2): 0% | mortality at 0.024 µM (Ixodes scapularis; 24 h, Rep1): 0% | mortality at 0.024 µM (Ixodes scapularis; 24 h, Rep2): 0% | mortality at 0.098 µM (Ixodes scapularis; 24 h, Rep1): 0% | mortality at 0.098 µM (Ixodes scapularis; 24 h, Rep2): 0% | mortality at 0.39 µM (Ixodes scapularis; 24 h, Rep1): 0% | mortality at 0.39 µM (Ixodes scapularis; 24 h, Rep2): 0% | mortality at 1.56 µM (Ixodes scapularis; 24 h, Rep1): 0% | mortality at 1.56 µM (Ixodes scapularis; 24 h, Rep2): 0% | mortality at 6.25 µM (Ixodes scapularis; 24 h, Rep1): 0% | mortality at 6.25 µM (Ixodes scapularis; 24 h, Rep2): 0% | mortality at 25 µM (Ixodes scapularis; 24 h, Rep1): 0% | mortality at 25 µM (Ixodes scapularis; 24 h, Rep2): 0% | mortality at 100 µM (Ixodes scapularis; 24 h, Rep1): 20% | mortality at 100 µM (Ixodes scapularis; 24 h, Rep2): 0% | mortality at 0.006 µM (Ixodes scapularis; 48 h, Rep1): 0% | mortality at 0.006 µM (Ixodes scapularis; 48 h, Rep2): 0% | mortality at 0.024 µM (Ixodes scapularis; 48 h, Rep1): 0% | mortality at 0.024 µM (Ixodes scapularis; 48 h, Rep2): 0% | mortality at 0.098 µM (Ixodes scapularis; 48 h, Rep1): 0% | mortality at 0.098 µM (Ixodes scapularis; 48 h, Rep2): 0% | mortality at 0.39 µM (Ixodes scapularis; 48 h, Rep1): 0% | mortality at 0.39 µM (Ixodes scapularis; 48 h, Rep2): 0% | mortality at 1.56 µM (Ixodes scapularis; 48 h, Rep1): 0% | mortality at 1.56 µM (Ixodes scapularis; 48 h, Rep2): 0% | mortality at 6.25 µM (Ixodes scapularis; 48 h, Rep1): 0% | mortality at 6.25 µM (Ixodes scapularis; 48 h, Rep2): 0% | mortality at 25 µM (Ixodes scapularis; 48 h, Rep1): 10% | mortality at 25 µM (Ixodes scapularis; 48 h, Rep2): 30% | mortality at 100 µM (Ixodes scapularis; 48 h, Rep1): 50% | mortality at 100 µM (Ixodes scapularis; 48 h, Rep2): 30%
